Laboratory results as given in ChEMBL document CHEMBL3885881, “DrugMatrix”.

Species on record: Rattus norvegicus
Test: DrugMatrix - Regimen: Daily Repeat
Assay type: toxicity, organism-based, Sprague-Dawley
Design: regimen Daily Repeat, gender Male, age 6-8 weeks
Details: in vivo, po, route oral GAVAGE, vehicle 100 % WATER; for ABSOLUTE BASOPHIL / ABSOLUTE EOSINOPHIL / ABSOLUTE LYMPHOCYTE / ABSOLUTE MONOCYTE / ABSOLUTE SEGMENTED NEUTROPHIL / BASOPHIL / EOSINOPHIL / ERYTHROCYTE COUNT / HEMATOCRIT / HEMOGLOBIN / LEUKOCYTE COUNT / LYMPHOCYTE / MEAN CORPUSCULAR HEMOGLOBIN / MEAN CORPUSCULAR HEMOGLOBIN CONCENTRATION / MEAN CORPUSCULAR VOLUME / MONOCYTE / NEUTROPHIL / NUCLEATED RED BLOOD CELLS / PLATELET COUNT: tissue Blood; for ALANINE AMINOTRANSFERASE / ALBUMIN / ALKALINE PHOSPHATASE / ASPARTATE AMINOTRANSFERASE / BLOOD UREA NITROGEN / CARBON DIOXIDE / CHLORIDE / CHOLESTEROL / CREATINE PHOSPHOKINASE / CREATININE / GLUCOSE / LACTATE DEHYDROGENASE / LIPASE / PHOSPHORUS / POTASSIUM / SODIUM / TOTAL BILIRUBIN / TOTAL PROTEIN / URIC ACID: tissue Plasma
[1] = 0 mg/kg, 72 h, dose level Control, time 3 day
[2] = 0 mg/kg, 120 h, dose level Control, time 5 day
[3] = 25 mg/kg, 72 h, dose level Low, time 3 day
[4] = 25 mg/kg, 120 h, dose level Low, time 5 day

CCC1(c2ccccc2)C(=O)NC(=O)NC1=O [PHENOBARBITAL]
ABSOLUTE BASOPHIL [1]: 0 CELLS/uL | ABSOLUTE EOSINOPHIL [1]: 32.5 CELLS/uL | ABSOLUTE LYMPHOCYTE [1]: 9305.83 CELLS/uL | ABSOLUTE MONOCYTE [1]: 43.83 CELLS/uL | ABSOLUTE SEGMENTED NEUTROPHIL [1]: 817.83 CELLS/uL | BASOPHIL [1]: 0% | EOSINOPHIL [1]: 0.33% | ERYTHROCYTE COUNT [1]: 5.38 x10E6/uL | HEMATOCRIT [1]: 33.63% | HEMOGLOBIN [1]: 13.17 G/DL | LEUKOCYTE COUNT [1]: 10.2 x10E3/uL | LYMPHOCYTE [1]: 91.17% | MEAN CORPUSCULAR HEMOGLOBIN [1]: 24.5 pg | MEAN CORPUSCULAR HEMOGLOBIN CONCENTRATION [1]: 39.13 G/DL | MEAN CORPUSCULAR VOLUME [1]: 62.53 fL | MONOCYTE [1]: 0.5% | NEUTROPHIL [1]: 8% | NUCLEATED RED BLOOD CELLS [1]: 0.17 /100WBC | PLATELET COUNT [1]: 858 x10E3/uL | ALANINE AMINOTRANSFERASE [1]: 55.67 u/L | ALBUMIN [1]: 4.07 G/DL | ALKALINE PHOSPHATASE [1]: 337 u/L | ASPARTATE AMINOTRANSFERASE [1]: 84 u/L | BLOOD UREA NITROGEN [1]: 13.17 mg/dL | CARBON DIOXIDE [1]: 34.17 mmol/L | CHLORIDE [1]: 99.33 MEQ/L | CHOLESTEROL [1]: 78.83 mg/dL | CREATINE PHOSPHOKINASE [1]: 576.83 u/L | CREATININE [1]: 0.17 mg/dL | GLUCOSE [1]: 152.67 mg/dL | LACTATE DEHYDROGENASE [1]: 147.83 u/L | LIPASE [1]: 9.5 u/L | PHOSPHORUS [1]: 10.78 mg/dL | POTASSIUM [1]: 6.34 MEQ/L | SODIUM [1]: 144.12 MEQ/L | TOTAL BILIRUBIN [1]: 0.18 mg/dL | TOTAL PROTEIN [1]: 6.08 G/DL | URIC ACID [1]: 0.65 mg/dL | ABSOLUTE BASOPHIL [2]: 0 CELLS/uL | ABSOLUTE EOSINOPHIL [2]: 31.17 CELLS/uL | ABSOLUTE LYMPHOCYTE [2]: 7918.33 CELLS/uL | ABSOLUTE MONOCYTE [2]: 58.33 CELLS/uL | ABSOLUTE SEGMENTED NEUTROPHIL [2]: 725.5 CELLS/uL | BASOPHIL [2]: 0% | EOSINOPHIL [2]: 0.33% | ERYTHROCYTE COUNT [2]: 5.32 x10E6/uL | HEMATOCRIT [2]: 33.53% | HEMOGLOBIN [2]: 13.17 G/DL | LEUKOCYTE COUNT [2]: 8.73 x10E3/uL | LYMPHOCYTE [2]: 90.33% | MEAN CORPUSCULAR HEMOGLOBIN [2]: 24.82 pg | MEAN CORPUSCULAR HEMOGLOBIN CONCENTRATION [2]: 39.33 G/DL | MEAN CORPUSCULAR VOLUME [2]: 63.12 fL | MONOCYTE [2]: 0.67% | NEUTROPHIL [2]: 8.67% | NUCLEATED RED BLOOD CELLS [2]: 0 /100WBC | PLATELET COUNT [2]: 1144.83 x10E3/uL | ALANINE AMINOTRANSFERASE [2]: 60.5 u/L | ALBUMIN [2]: 3.97 G/DL | ALKALINE PHOSPHATASE [2]: 343.17 u/L | ASPARTATE AMINOTRANSFERASE [2]: 80.83 u/L | BLOOD UREA NITROGEN [2]: 15 mg/dL | CARBON DIOXIDE [2]: 31 mmol/L | CHLORIDE [2]: 99.75 MEQ/L | CHOLESTEROL [2]: 71.5 mg/dL | CREATINE PHOSPHOKINASE [2]: 237.17 u/L | CREATININE [2]: 0.17 mg/dL | GLUCOSE [2]: 137 mg/dL | LACTATE DEHYDROGENASE [2]: 146.17 u/L | LIPASE [2]: 11.5 u/L | PHOSPHORUS [2]: 10.13 mg/dL | POTASSIUM [2]: 6 MEQ/L | SODIUM [2]: 145 MEQ/L | TOTAL BILIRUBIN [2]: 0.13 mg/dL | TOTAL PROTEIN [2]: 5.82 G/DL | URIC ACID [2]: 0.62 mg/dL | ABSOLUTE BASOPHIL [3]: 0 CELLS/uL | ABSOLUTE EOSINOPHIL [3]: 0 CELLS/uL | ABSOLUTE LYMPHOCYTE [3]: 9305.33 CELLS/uL | ABSOLUTE MONOCYTE [3]: 110 CELLS/uL | ABSOLUTE SEGMENTED NEUTROPHIL [3]: 784.67 CELLS/uL | BASOPHIL [3]: 0% | EOSINOPHIL [3]: 0% | ERYTHROCYTE COUNT [3]: 5.23 x10E6/uL | HEMATOCRIT [3]: 33.43% | HEMOGLOBIN [3]: 13.03 G/DL | LEUKOCYTE COUNT [3]: 10.2 x10E3/uL | LYMPHOCYTE [3]: 92.33% | MEAN CORPUSCULAR HEMOGLOBIN [3]: 24.97 pg | MEAN CORPUSCULAR HEMOGLOBIN CONCENTRATION [3]: 39 G/DL | MEAN CORPUSCULAR VOLUME [3]: 63.97 fL | MONOCYTE [3]: 0.67% | NEUTROPHIL [3]: 7% | NUCLEATED RED BLOOD CELLS [3]: 0 /100WBC | PLATELET COUNT [3]: 972.33 x10E3/uL | ALANINE AMINOTRANSFERASE [3]: 52.33 u/L | ALBUMIN [3]: 4 G/DL | ALKALINE PHOSPHATASE [3]: 326.67 u/L | ASPARTATE AMINOTRANSFERASE [3]: 74.67 u/L | BLOOD UREA NITROGEN [3]: 12 mg/dL | CARBON DIOXIDE [3]: 35 mmol/L | CHLORIDE [3]: 97.5 MEQ/L | CHOLESTEROL [3]: 87.67 mg/dL | CREATINE PHOSPHOKINASE [3]: 212 u/L | CREATININE [3]: 0.15 mg/dL | GLUCOSE [3]: 146.33 mg/dL | LACTATE DEHYDROGENASE [3]: 153.33 u/L | LIPASE [3]: 12 u/L | PHOSPHORUS [3]: 11.73 mg/dL | POTASSIUM [3]: 6.16 MEQ/L | SODIUM [3]: 143.95 MEQ/L | TOTAL BILIRUBIN [3]: 0.2 mg/dL | TOTAL PROTEIN [3]: 5.83 G/DL | URIC ACID [3]: 0.83 mg/dL | ABSOLUTE BASOPHIL [4]: 0 CELLS/uL | ABSOLUTE EOSINOPHIL [4]: 0 CELLS/uL | ABSOLUTE LYMPHOCYTE [4]: 5785.67 CELLS/uL | ABSOLUTE MONOCYTE [4]: 18.33 CELLS/uL | ABSOLUTE SEGMENTED NEUTROPHIL [4]: 262.67 CELLS/uL | BASOPHIL [4]: 0% | EOSINOPHIL [4]: 0% | ERYTHROCYTE COUNT [4]: 5.55 x10E6/uL | HEMATOCRIT [4]: 34.67% | HEMOGLOBIN [4]: 13.1 G/DL | LEUKOCYTE COUNT [4]: 6.07 x10E3/uL | LYMPHOCYTE [4]: 94.33% | MEAN CORPUSCULAR HEMOGLOBIN [4]: 23.57 pg | MEAN CORPUSCULAR HEMOGLOBIN CONCENTRATION [4]: 37.77 G/DL | MEAN CORPUSCULAR VOLUME [4]: 62.47 fL | MONOCYTE [4]: 0.33% | NEUTROPHIL [4]: 5.33% | NUCLEATED RED BLOOD CELLS [4]: 0 /100WBC | PLATELET COUNT [4]: 1109.67 x10E3/uL | ALANINE AMINOTRANSFERASE [4]: 55.33 u/L | ALBUMIN [4]: 4.13 G/DL | ALKALINE PHOSPHATASE [4]: 380.67 u/L | ASPARTATE AMINOTRANSFERASE [4]: 85 u/L | BLOOD UREA NITROGEN [4]: 17.67 mg/dL | CARBON DIOXIDE [4]: 32.67 mmol/L | CHLORIDE [4]: 100 MEQ/L | CHOLESTEROL [4]: 89.67 mg/dL | CREATINE PHOSPHOKINASE [4]: 357 u/L
